From patent US12152030B2 (NOVOSTAR PHARMACEUTICALS, LTD., priority 2019, dated 2024)
Where a name gives a salt, the structure may show the parent alone.

What was measured:
MNK1 [1] = target: T1, MNK1 (Homo sapiens, UniProt Q9BUB5); test: KinomeScan, MNK1; format: binding
Text: KinomeScan was used to determine the kinase selectivity of compound 2.

[2] = Pharmacokinetic study in rats; format: in vivo; settings: male, SD, plasma, rat
Description: In the examples, rat pharmacokinetic tests were performed for compounds 2 and 26 to illustrate their pharmacokinetic properties in rats.
Formulation of Liquors of Compound 2: […]
Experimental Method for Pharmacokinetic Study in Rats
(§1) Six SD rats, male, weighing 180-220 g, fasting for 12 hours, were randomly divided into 2 groups, 3 in each group. The animals in group A were intragastrically administrated with the compound liquor at a dose of 10 mg/kg; the animals in group B were intravenously administrated with the compound liquor via tails at a dose of 3 mg/kg. Blank blood was harvested before administration; about 100 μL of venous blood was harvested at different time points after administration, placed in a test tube added with heparin and centrifuged, and about 50 μL of blood plasma was collected and stored at −20° C. for testing.
Formulation of Liquors of Compound 26: […]
Formulation of solution for intravenous administration: compound 26 was dissolved in a solution of 5% DMSO+10% Solutol HS15+85% (20% HP-(3-CD physiological saline).
Formulation of suspension for intragastric administration: compound 26 was dissolved in a solution of 5% DMSO+10% Solutol HS15+85% (20% HP-(3-CD physiological saline).
Administration dosage of compound 26: 1 mg/kg for intravenous injection, 3 mg/kg for intragastric administration.
as §1, with “of 3” for “of 10”, “of 1” for “of 3”

MNK1 [3] = target: T1, MNK1; test: MNK biological enzyme assay (HTRF kinase assay), MNK1; format: biochemical; parameters: purchased ThermoFisher PV6023; settings: 3 ng/ul MNK1, 1 μM STK1 peptide, 100 μM ATP
Description: (§2) A HTRF kinase assay kit (Cisbio, catalog number 62ST1PEB) was used to determine the MNK inhibitory activity of the compounds. All kinase reactions were performed in the reaction buffer (provided in the kit). The final MNK1 reaction involved 3 ng/ul recombinant MNK1 (ThermoFisher, PV6023), 1 μM MNK substrate peptide STK1 (provided in the kit), 100 μM ATP, and different concentrations of the inhibitory compounds of interest. The final MNK2 reaction involved 1 ng/μl recombinant MNK2 (ThermoFisher, PV5607), 1 μM MNK substrate peptide STK1 (provided in the kit), 100 μM ATP, and different concentrations of the inhibitory compounds of interest. The final DMSO concentration in each of the reactions was 1%.
(§3) The kinase reaction was performed in a final volume of 10 μl in a 384-well white flat-bottomed polystyrene plate. The MNK1/2 enzyme was pre-incubated with the compound and substrate peptide for 5 minutes, and then ATP was added thereto. After addition of ATP, the kinase reaction was incubated at 25° C. for 120 minutes or 60 minutes. The reaction was subsequently terminated by adding 5 μl of EU3+ substrate antibody detection reagent and 5 μl of XL665 detection reagent, and incubating for another 60 minutes. The luminescent signal was detected with an EnVision microplate reader counter (Perkin Elmer), and the signal from 10-point dilution series of the compounds was used to calculate the compound concentration (IC50) required to achieve 50% inhibition of enzyme activity.
(§4) In this respect, IC50 values which are less than 0.01 μM were marked as “+++”, which are from 0.01 to 0.1 μM were marked as “++”, and which are greater than 0.1 and up to 10.0 μM were marked as “+”, and NA meant “not detected”.

MNK2 = MNK2 (Homo sapiens, UniProt Q9HBH9); test: MNK biological enzyme assay (HTRF kinase assay), MNK2; format: biochemical; parameters: purchased ThermoFisher PV5607; settings: 1 ng/μl MNK2, 1 μM STK1 peptide, 100 μM ATP
Description: as §2, §3, §4

T1 sequence (Q9BUB5 whole entry): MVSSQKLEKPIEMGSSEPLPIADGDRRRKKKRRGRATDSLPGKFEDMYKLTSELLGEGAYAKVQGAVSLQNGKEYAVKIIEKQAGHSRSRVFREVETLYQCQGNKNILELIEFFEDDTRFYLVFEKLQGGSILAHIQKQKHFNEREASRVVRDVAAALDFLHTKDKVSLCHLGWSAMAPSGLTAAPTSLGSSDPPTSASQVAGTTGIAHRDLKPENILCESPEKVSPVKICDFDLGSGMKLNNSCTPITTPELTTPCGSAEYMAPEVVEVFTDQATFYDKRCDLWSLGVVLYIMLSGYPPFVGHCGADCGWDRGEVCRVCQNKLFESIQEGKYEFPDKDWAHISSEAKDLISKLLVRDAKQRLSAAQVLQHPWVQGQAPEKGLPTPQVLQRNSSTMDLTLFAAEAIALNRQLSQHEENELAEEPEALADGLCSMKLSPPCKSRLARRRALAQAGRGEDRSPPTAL
Chain of MNK2 (Q9HBH9 whole entry): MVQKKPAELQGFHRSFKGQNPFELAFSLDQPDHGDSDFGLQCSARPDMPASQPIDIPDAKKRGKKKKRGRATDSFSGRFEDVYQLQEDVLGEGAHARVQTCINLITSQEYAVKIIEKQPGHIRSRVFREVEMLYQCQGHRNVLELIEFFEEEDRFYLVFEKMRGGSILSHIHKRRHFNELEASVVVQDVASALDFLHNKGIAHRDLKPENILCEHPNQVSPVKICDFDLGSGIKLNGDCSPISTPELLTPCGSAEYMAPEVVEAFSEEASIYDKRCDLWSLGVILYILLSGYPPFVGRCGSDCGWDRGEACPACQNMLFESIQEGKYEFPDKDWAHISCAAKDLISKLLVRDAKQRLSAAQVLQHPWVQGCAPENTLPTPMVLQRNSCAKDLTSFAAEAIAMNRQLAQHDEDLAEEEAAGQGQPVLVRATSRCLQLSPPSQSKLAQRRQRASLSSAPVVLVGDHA

inhibition at 1 µM (MNK1 [1]): 97.2%
AUC(0-inf) ([2]; iv, 3 mg/kg): 471 ng·h/mL
AUC(0-t) ([2]; iv, 3 mg/kg): 456 ng·h/mL
clearance ([2]; iv, 3 mg/kg): 110 mL/min/kg
half-life ([2]; iv, 3 mg/kg): 1.58 h
Vd ([2]; iv, i.v., 3 mg/kg, read-out: Vz): 12.3 L/kg
bioavailability ([2]; oral, p.o. 10 mg/kg vs i.v. 3 mg/kg): 38.8%
AUC(0-inf) ([2]; po, 10 mg/kg): 624 ng·h/mL
AUC(0-t) ([2]; po, 10 mg/kg): 584 ng·h/mL
Cmax ([2]; po, 10 mg/kg): 130 ng/mL
Tmax ([2]; po, 10 mg/kg): 2.17 h
half-life ([2]; po, 10 mg/kg): 5.07 h
IC50 (MNK1 [3]): 10 to 100 nM
IC50 (MNK2): < 10 nM
Compound: Cc1c2c(c(=O)n3c1C(=O)NC31CCCCC1)Nc1cc(N)ncc1C2 [Compound 2, 8′-amino-12′-methyl-6′,11′-dihydro-2′H-spiro[cyclohexane-1,3′-imidazole[1′,5′:1,6]pyrido[3,4-B][1,6]naphthyridine]-1′,5′-dione hydrochloride]
